Patent US11040026B2, “Muscarinic M1 receptor positive allosteric modulators” (SUVEN LIFE SCIENCES LIMITED, priority 2016, dated 2021)
Structures can show the parent of a compound that is named as a salt.

Target: T1, muscarinic M1 receptor (Homo sapiens, UniProt P11229)
T1 sequence (P11229 1-460): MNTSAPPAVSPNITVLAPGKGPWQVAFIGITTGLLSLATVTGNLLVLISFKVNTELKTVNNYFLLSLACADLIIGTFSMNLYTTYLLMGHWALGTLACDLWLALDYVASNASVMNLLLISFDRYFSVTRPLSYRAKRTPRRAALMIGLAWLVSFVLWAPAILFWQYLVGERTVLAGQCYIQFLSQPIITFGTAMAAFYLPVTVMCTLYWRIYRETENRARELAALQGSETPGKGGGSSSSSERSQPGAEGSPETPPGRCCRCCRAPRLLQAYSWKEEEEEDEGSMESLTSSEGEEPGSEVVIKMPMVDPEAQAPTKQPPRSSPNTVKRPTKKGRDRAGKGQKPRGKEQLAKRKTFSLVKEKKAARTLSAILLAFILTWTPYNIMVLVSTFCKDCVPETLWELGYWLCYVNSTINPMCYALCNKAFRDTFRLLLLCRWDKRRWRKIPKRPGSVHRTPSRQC
Assay: Allosteric potency EC50 for muscarinic M1 receptor (CHO pCRE-Luc reporter assay)
Format: cell-based
Details: in presence of EC20 of acetylcholine; CHO cells, luciferase reporter, 4 hours
Procedure: Determination of Allosteric Potency EC50 Values for Muscarinic M1 Receptor:
A stable CHO cell line expressing recombinant human Muscarinic M1 receptor and pCRE-Luc reporter system was used for cell-based assay. The assay offers a non-radioactive based approach to determine binding of a compound to GPCRs. In this specific assay, the level of intracellular cyclic AMP which is modulated by activation or inhibition of the receptor is measured. The recombinant cells harbor luciferase reporter gene under the control of cyclic AMP response element.
The above cells were grown in 96 well clear bottom white plates in Hams F12 medium containing 10% fetal bovine serum (FBS). Prior to the addition of compounds or standard agonist, cells were serum starved overnight. Increasing concentrations of test compounds were added along with EC20 of acetylcholine in OptiMEM medium to the cells. The incubation was continued at 37° C. in CO2 incubator for 4 hours. Medium was removed and cells were washed with phosphate buffered saline. The cells were lysed and luciferase activity was measured in a Luminometer. Luminescence units were plotted against the compound concentrations using Graphpad software. EC50 values of the compounds were defined as the concentration required in stimulating the luciferase activity by 50% in presence of EC20 of acetylcholine and the results are provided in table 1.

| Compound | EC50 [µM] |
| --- | --- |
| Cn1ccc2c(Cc3cccc(F)c3F)cc(C(=O)N[C@H]3CCCC[C@@H]3O)nc21 [Example 16, N-[(1S,2S)-2-Hydroxycyclohexyl]-4-(2,3-difluorobenzyl)-1-methyl-1H-pyrrolo[2,3-b]pyridine-6-carboxamide] | 1.29 |
| Cc1cc(Cc2cc(C(=O)N[C@H]3CCCC[C@@H]3O)nc3c2ccn3C)ccn1 [Example 17, N-[(1S,2S)-2-Hydroxycyclohexyl]-4-(2-methylpyridin-4-ylmethyl)-1-methyl-1H-pyrrolo[2,3-b]pyridine-6-carboxamide] | 1.63 |
| COc1ccc(Cc2cc(C(=O)N[C@H]3CCCC[C@@H]3O)nc3c2ccn3C)cc1 [Example 19, N-[(1S,2S)-2-Hydroxycyclohexyl]-4-(4-methoxybenzyl)-1-methyl-1H-pyrrolo[2,3-b]pyridine-6-carboxamide] | 1.11 |
| CSc1ccc(Cc2cc(C(=O)N[C@H]3CCCC[C@@H]3O)nc3c2ccn3C)cn1 [Example 20, N-[(1S,2S)-2-Hydroxycyclohexyl]-4-(2-methylsulfanylpyridin-5-ylmethyl)-1-methyl-1H-pyrrolo[2,3-b]pyridine-6-carboxamide] | 0.315 |
| Cc1ncccc1-c1ccc(Cc2cc(C(=O)N[C@H]3CCCC[C@@H]3O)nc3c2ccn3C)cc1 [Example 21, N-[(1S,2S)-2-Hydroxycyclohexyl]-4-[4-(2-methylpyridin-3-yl)benzyl]-1-methyl-1H-pyrrolo[2,3-b]pyridine-6-carboxamide] | 1.05 |
| O=C(N[C@H]1CCCC[C@@H]1O)c1cc(Cc2ccc(Cl)nc2)c2ccn(CCF)c2n1 [Example 23, N-[(1S,2S)-2-Hydroxycyclohexyl]-4-(2-chloropyridin-5-ylmethyl)-1-(2-fluoroethyl)-1H-pyrrolo[2,3-b]pyridine-6-carboxamide] | 0.727 |
| Cn1ccc2c(Cc3ccc(-c4cscn4)cc3)cc(C(=O)NCC(C)(C)O)nc21 [Example 24, N-(2-Hydroxy-2-methylpropyl)-4-[4-(thiazol-4-yl)benzyl]-1-methyl-1H-pyrrol[2,3-b]pyridine-6-carboxamide] | 0.834 |
| Cn1ccc2c(Cc3cccc(F)c3)cc(C(=O)N[C@H]3CCCC[C@@H]3O)nc21 [Example 25, N-[(1S,2S)-2-Hydroxycyclohexyl]-4-(3-fluorobenzyl)-1-methyl-1H-pyrrolo[2,3-b]pyridine-6-carboxamide] | 0.362 |
| Cn1ccc2c(Cc3ccc(-c4cscn4)cc3)cc(C(=O)NCC3(O)CCCC3)nc21 [Example 26, N-(1-Hydroxycyclopentylmethyl)-4-[4-(thiazol-4-yl)benzyl]-1-methyl-1H-pyrrolo[2,3-b]pyridine-6-carboxamide] | 0.221 |
| Cn1ccc2c(Cc3cccnc3)cc(C(=O)N[C@H]3CCCC[C@@H]3O)nc21 [Example 27, N-[(1S,2S)-2-Hydroxycyclohexyl]-4-(pyridin-3-ylmethyl)-1-methyl-1H-pyrrolo[2,3-b]pyridine-6-carboxamide] | 0.234 |
| CN1CCc2c(Cc3ccc(Cl)nc3)cc(C(=O)N[C@H]3CCCC[C@@H]3O)nc21 [Example 72, N-[(1S,2S)-2-Hydroxycyclohexyl]-4-(2-chloropyridin-5-ylmethyl)-1-methyl-2,3-dihydro-1H-pyrrolo[2,3-b]pyridine-6-carboxamide] | 0.494 |
| CN1CCc2c(Cc3ccc(F)cc3)cc(C(=O)N[C@H]3CCCC[C@@H]3O)nc21 [Example 76, N-[(1S,2S)-2-Hydroxycyclohexyl]-4-(4-fluorobenzyl)-1-methyl-2,3-dihydro-1H-pyrrolo[2,3-b]pyridine-6-carboxamide] | 0.38 |
| COc1ccc(Cc2cc(C(=O)N[C@H]3CCCC[C@@H]3O)nc3c2CCN3C)cc1 [Example 77, N-[(1S,2S)-2-Hydroxycyclohexyl]-4-(4-methoxybenzyl)-1-methyl-2,3-dihydro-1H-pyrrolo[2,3-b]pyridine-6-carboxamide] | 0.342 |
| Cn1cc(-c2ccc(Cc3cc(C(=O)N[C@H]4CCCC[C@@H]4O)nc4c3CCNC4)cc2)cn1 [Example 90, N-[(1S,2S)-2-Hydroxycyclohexyl]-4-[4-(1-methyl-1H-pyrazol-4-yl)-benzyl-5,6,7,8-tetrahydro[1,7]naphthyridine-2-carboxamide Hydrochloride] | 0.018 |
| COc1ccc(Cc2cc(C(=O)N[C@H]3CCCC[C@@H]3O)nc3c2OCCO3)cc1 [Example 104, N-[(1S,2S)-2-Hydroxycyclohexyl]-8-(4-methoxybenzyl)-2,3-dihydro-[1,4]dioxino[2,3-b]pyridine-6-carboxamide] | 0.231 |
| Cn1cc(-c2ccc(Cc3cc(C(=O)N[C@H]4CCCC[C@@H]4O)nc4c3OCCO4)cc2)cn1 [Example 106, N-[(1S,2S)-2-Hydroxycyclohexyl]-8-[4-(1-methyl-1H-pyrazol-4-yl)-benzyl]-2,3-dihydro-[1,4]dioxino[2,3-b]pyridine-6-carboxamide] | 0.014 |
| CN1CCOc2c(Cc3ccc(-c4cnn(C)c4)cc3)cc(C(=O)N[C@H]3CCCC[C@@H]3O)nc21 [Example 122, N-[(1S,2S)-2-Hydroxycyclohexyl]-8-[4-(1-methyl-1H-pyrazol-4-yl)benzyl]-4-methyl-2H-pyrido[3,2-b][1,4]oxazine-6-carboxamide] | 0.085 |
| COc1ccc(Cc2cc(C(=O)N[C@H]3CCCC[C@@H]3O)nc3c2OCCN3C)cc1 [Example 127, N-[(1S,2S)-2-Hydroxycyclohexyl]-8-(4-methoxybenzyl)-4-methyl-2H-pyrido[3,2-b][1,4]oxazine-6-carboxamide] | 0.946 |
| CN1CCOc2c(Cc3ccc(-n4cccn4)cc3)cc(C(=O)N[C@H]3CCCC[C@@H]3O)nc21 [Example 129, N-[(1S,2S)-2-Hydroxycyclohexyl]-8-[4-pyrazol-1-ylbenzyl]-4-methyl-2H-pyrido[3,2-b][1,4]oxazine-6-carboxamide] | 0.015 |
| Cn1ccc2nc(C(=O)N[C@H]3CCCC[C@@H]3O)cc(Cc3ccc(F)cc3)c21 [Example 137, N-[(1S,2S)-2-Hydroxycyclohexyl]-7-(4-fluorobenzyl)-1-methyl-1H-pyrrolo[3,2-b]pyridine-5-carboxamide] | 0.641 |
